Values of other authors, collected in patent US11642371B2, “Encapsulated antimicrobials and related methods of treatment” (ADVANTAGE SILVER DENTAL ARREST, LLC, priority 2018, dated 2023).

Tested on: dentinal caries lesions
Details: lesions that had progressed into the dentin

Question: With Silver diamine fluoride [SDF] as the substance, how does the “dentinal caries lesions found to be arrested after treatment” value read?
Answer: two-thirds
